Measured values reported in ChEMBL document CHEMBL1201862, “PubChem BioAssay data set” (2004).
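48-hour exposure; five concentrations; linearly interpolated endpoints. Here, GI50 denotes the concentration required for 50% inhibition of growth.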 Calls of active or inactive are those of the source. Rule as the data show it: active = GI50 up to about 1.1 µM and inactive = higher.

How the values were obtained:
Assay in all cases: NCI anticancer screen, dose series, 48 h
786-0 = test system: 786-0
A549 = test system: A549
CAKI-1 = test system: CAKI-1
COLO 205 = test system: COLO 205
EKVX = test system: EKVX
HCC 2998 = test system: HCC 2998
HT-29 = test system: HT-29
IGROV-1 = test system: IGROV-1
KM12 = test system: KM12
M14 = test system: M14
MDA-MB-231 = test system: MDA-MB-231
NCI-H226 = test system: NCI-H226
NCI-H522 = test system: NCI-H522
OVCAR-8 = test system: OVCAR-8
SK-MEL-28 = test system: SK-MEL-28
SK-MEL-2 = test system: SK-MEL-2
SK-MEL-5 = test system: SK-MEL-5
SK-OV-3 = test system: SK-OV-3
UACC-257 = test system: UACC-257
UO-31 = test system: UO-31

Measured: GI50

COC(=O)c1ccc(NC(=O)c2cc3c(cc2Br)OCO3)o1
inactive: 786-0 > 100 µM | A549 > 100 µM | CAKI-1 > 100 µM | COLO 205 > 100 µM | EKVX > 100 µM | HCC 2998 > 100 µM | HT-29 > 100 µM | IGROV-1 > 100 µM | KM12 > 100 µM | M14 > 100 µM | MDA-MB-231 > 100 µM | NCI-H226 > 100 µM | NCI-H522 15.7 µM | OVCAR-8 > 100 µM | SK-MEL-28 > 100 µM | SK-MEL-2 > 100 µM | SK-MEL-5 > 100 µM | SK-OV-3 > 100 µM | UACC-257 > 100 µM | UO-31 > 100 µM

COc1cc2cccc(N)c2cc1OC
inactive: 786-0 > 100 µM | A549 > 100 µM | CAKI-1 > 100 µM | COLO 205 > 100 µM | EKVX > 100 µM | HCC 2998 > 100 µM | HT-29 > 100 µM | IGROV-1 > 100 µM | KM12 > 100 µM | M14 > 100 µM | MDA-MB-231 > 100 µM | NCI-H226 > 100 µM | NCI-H522 > 100 µM | OVCAR-8 > 100 µM | SK-MEL-28 > 100 µM | SK-MEL-2 > 100 µM | SK-MEL-5 > 100 µM | SK-OV-3 > 100 µM | UACC-257 > 100 µM | UO-31 > 100 µM

CSC1=C(C#N)C(=S)N=C(N)C1C(=O)Nc1ccc(C)cc1 (stereo not given)
inactive: 786-0 > 100 µM | A549 > 100 µM | CAKI-1 > 100 µM | COLO 205 > 100 µM | EKVX > 100 µM | HCC 2998 > 100 µM | HT-29 > 100 µM | IGROV-1 > 100 µM | KM12 > 100 µM | M14 > 100 µM | MDA-MB-231 > 100 µM | NCI-H226 60.1 µM | NCI-H522 32 µM | OVCAR-8 > 100 µM | SK-MEL-28 > 100 µM | SK-MEL-2 > 100 µM | SK-MEL-5 > 100 µM | SK-OV-3 > 100 µM | UACC-257 > 100 µM | UO-31 64 µM

O=[N+]([O-])/C(C(Cl)=C(Cl)Cl)=C(/Br)SCc1ccccc1
inactive: 786-0 2.1 µM | A549 5.85 µM | CAKI-1 2 µM | COLO 205 1.6 µM | EKVX 5.46 µM | HCC 2998 7.21 µM | HT-29 2.11 µM | IGROV-1 3.71 µM | KM12 13.4 µM | M14 2.4 µM | MDA-MB-231 2.72 µM | NCI-H226 6.07 µM | NCI-H522 1.71 µM | OVCAR-8 2.61 µM | SK-MEL-28 1.89 µM | SK-MEL-2 4.42 µM | SK-MEL-5 2.96 µM | SK-OV-3 22 µM | UACC-257 3.18 µM | UO-31 2.45 µM

O=C1/C(=C\c2cccc(Oc3ccccc3)c2)S(=O)(=O)C(c2ccccc2)N1c1ccccc1Cl (stereo not given)
inactive: 786-0 29.3 µM | A549 31.6 µM | CAKI-1 32.6 µM | COLO 205 17.6 µM | EKVX 22.3 µM | HCC 2998 49.3 µM | HT-29 22.6 µM | IGROV-1 17.1 µM | KM12 27 µM | M14 28.6 µM | MDA-MB-231 28.2 µM | NCI-H226 29.6 µM | NCI-H522 18.4 µM | OVCAR-8 23.4 µM | SK-MEL-28 38.9 µM | SK-MEL-2 26 µM | SK-MEL-5 17.4 µM | SK-OV-3 34.2 µM | UACC-257 28.6 µM | UO-31 19.7 µM
